Test results published in patent US9708336B2, “Metallo-beta-lactamase inhibitors” (priority 2014, dated 2017).
Like-named read-outs stand apart in the source and are kept apart here.

Assays:
[1] = target: IMP-1 (Serratia marcescens, UniProt P52699); assay: biochemical; assay type: biochemical; conditions: read-out: IMP-1 IC50
[2] = target: VIM-1 (Pseudomonas aeruginosa (strain ATCC 15692 / DSM 22644 / CIP 104116 / JCM 14847 / LMG 12228 / 1C / PRS 101 / PAO1), UniProt A0A0F7KYQ8); assay: Enzyme activity: determination of IC50, fluorescence assay with CCF2-FA substrate (VIM-1); assay type: biochemical
[3] = system: Klebsiella pneumoniae expressing VIM-1 (IHMA599644); assay: Antibiotic potentiation activity: synergistic concentration (MITC95) with imipenem, OD600 growth; assay type: cell-based
In short: (§1)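 Imipenem (4 μg/ml final; 1 μg/ml as an option) was combined with compound against isolates diluted 1:100 from saline suspensions into 1.1× CAMHB. Growth was assessed by absorbance at 22–24 h, 35 °C.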

[4] = system: Serratia marcescens expressing IMP-1 (CL5741); assay: as above; assay type: cell-based
In short: as §1

[5] = system: Escherichia coli expressing NDM-1 (CLB30016); assay: as above; assay type: cell-based
In short: as §1

[6] = target: NDM-1 (Klebsiella pneumoniae, UniProt C7C422); assay: biochemical; assay type: biochemical; conditions: read-out: NDM-1 IC50
[7] = IMP-1 enzyme, CCF2-FA substrate
[8] = VIM-1 enzyme, CCF2-FA substrate, read-out: VIM-1 IC50
[9] = Klebsiella pneumoniae IHMA599644 (VIM-1), 95% growth inhibition
[10] = Serratia marcescens CL5741 (IMP-1), 95% growth inhibition
[11] = (CLB30016, NDM-1), 95% growth inhibition
[12] = NDM-1 enzyme, CCF2-FA substrate
[13] = fluorescence assay with CCF2-FA substrate
[14] = fluorescence assay with CCF2-FA substrate, read-out: VIM-1 IC50
[15] = IHMA599644 (VIM-1), 95% inhibition of bacterial growth
[16] = CL5741 (IMP-1), 95% inhibition of bacterial growth
[17] = CLB30016 (NDM-1), 95% inhibition of bacterial growth
[18] = IMP-1 enzyme, CCF2-FA fluorescence assay
[19] = VIM-1 enzyme, CCF2-FA fluorescence assay, read-out: VIM-1 IC50
[20] = Klebsiella pneumoniae expressing VIM-1 (IHMA599644), 95% growth inhibition
[21] = Serratia marcescens expressing IMP-1 (CL5741), 95% growth inhibition
[22] = Escherichia coli expressing NDM-1 (CLB30016), 95% growth inhibition
[23] = NDM-1 enzyme, CCF2-FA fluorescence assay
[24] = concentration giving 95% inhibition of bacterial growth

Chain of NDM-1 (C7C422 whole entry, looked up, species assumed): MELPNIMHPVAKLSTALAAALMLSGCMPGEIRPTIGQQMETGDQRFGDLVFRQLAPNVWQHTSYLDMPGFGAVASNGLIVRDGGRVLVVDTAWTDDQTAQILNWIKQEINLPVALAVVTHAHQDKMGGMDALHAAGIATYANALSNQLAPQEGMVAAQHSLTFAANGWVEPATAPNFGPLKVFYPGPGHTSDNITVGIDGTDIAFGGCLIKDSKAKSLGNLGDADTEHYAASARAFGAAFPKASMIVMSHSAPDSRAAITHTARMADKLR
Chain of IMP-1 (P52699 whole entry, looked up): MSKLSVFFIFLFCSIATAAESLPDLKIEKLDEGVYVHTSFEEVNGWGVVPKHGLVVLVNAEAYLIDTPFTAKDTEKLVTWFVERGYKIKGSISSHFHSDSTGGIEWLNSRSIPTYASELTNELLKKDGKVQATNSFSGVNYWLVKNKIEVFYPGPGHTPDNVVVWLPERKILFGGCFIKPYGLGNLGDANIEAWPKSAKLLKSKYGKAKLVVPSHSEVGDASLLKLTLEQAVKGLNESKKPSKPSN

| Compound | IC50 [1, 18] | IC50 [2, 19] | Klebsiella pneumoniae MITC95 [3, 20] | Serratia marcescens MITC95 [4, 21] | Escherichia coli MITC95 [5, 22] | IC50 [6, 23] | further results |
| --- | --- | --- | --- | --- | --- | --- | --- |
| NC1(c2ccc(-c3ccc(C(F)(F)F)c(S(N)(=O)=O)c3-c3nnn[nH]3)cc2)CCCC1 [Example 729, 4′-(1-aminocyclopentyl)-2-(1H-tetrazol-5-yl)-4-(trifluoromethyl)biphenyl-3-sulfonamide] |  |  |  |  |  |  | IC50 [1, 7]: 6.97 nM; IC50 [2, 8]: 7.37 nM; Klebsiella pneumoniae MITC95 [3, 9]: 25 µM; Serratia marcescens MITC95 [4, 10]: 6.25 µM; Escherichia coli MITC95 [5, 11]: 6.25 µM; IC50 [6, 12]: 4.85 nM |
| NS(=O)(=O)c1c(C[C@H]2CC[C@H](N)CC2)ccc(-c2ccc(C3CNC3)cc2)c1-c1nn[nH]n1 [Example 595, 4-(((1r,4r)-4-aminocyclohexyl)methyl)-4′-(azetidin-3-yl)-2-(2H-tetrazol-5-yl)-[1,1′-biphenyl]-3-sulfonamide] |  |  |  |  |  |  | IC50 [1, 7]: 42.6 nM; IC50 ([2]; VIM-1 IC50, VIM-1 enzyme, CCF2-FA substrate): 1.3 nM; Klebsiella pneumoniae MITC95 [3, 9]: 1.563 µM; Serratia marcescens MITC95 [4, 10]: 3.125 µM; Escherichia coli MITC95 [5, 11]: 0.7813 µM; IC50 [6, 12]: 4.34 nM |
| CC1(O)CCCN(c2ccc(C(F)(F)F)c(S(N)(=O)=O)c2-c2nnn[nH]2)C1 (stereo not drawn) [Example 654, 3-(3-hydroxy-3-methylpiperidin-1-yl)-2-(1H-tetrazol-5-yl)-6-(trifluoromethyl)benzenesulfonamide] |  |  |  |  |  |  | IC50 [1, 7]: 19.6 nM; IC50 [2, 8]: 1.23 nM; Klebsiella pneumoniae MITC95 [3, 9]: 9.375 µM; Serratia marcescens MITC95 [4, 10]: 1.172 µM; Escherichia coli MITC95 [5, 11]: 4.688 µM; IC50 [6, 12]: 6.85 nM |
| N[C@@H]1CN(c2ccc(C(F)(F)F)c(S(N)(=O)=O)c2-c2nnn[nH]2)CC12CC2 [Example 754, 3-[(7S)-7-amino-5-azaspiro[2.4]hept-5-yl]-2-(1H-tetrazol-5-yl)-6-(trifluoromethyl) benzenesulfonamide] |  |  |  |  |  |  | IC50 [1, 13]: 869 nM; IC50 [2, 14]: 7.67 nM; Klebsiella pneumoniae MITC95 [3, 15]: 12.5 µM; Serratia marcescens MITC95 [4, 16]: 50 µM; Escherichia coli MITC95 [5, 17]: 25 µM; IC50 [6, 13]: 596 nM |
| NS(=O)(=O)c1cccc(-c2cccc3scnc23)c1-c1nnn[nH]1 [Example 422, 3-(Benzo[d]thiazol-4-yl)-2-(1H-tetrazol-5-yl)benzenesulfonamide] | 56 nM | 22.6 nM | 100 µM | 25 µM | 3.125 µM | 1.3 nM |  |
| Cc1ccc(-c2ccc(Br)c(S(N)(=O)=O)c2-c2nn[nH]n2)cc1 [Example 267, 4-bromo-4′-methyl-2-(2H-tetrazol-5-yl)-[1,1′-biphenyl]-3-sulfonamide] | 2 nM | 2.95 nM | 6.25 µM | 0.2552 µM | 0.7383 µM | 1.81 nM |  |
| NS(=O)(=O)c1cccc(-c2ccc(CNCCn3ccnn3)cc2)c1-c1nnn[nH]1 [Example 350, 2-(1H-tetrazol-5-yl)-4′-({[2-(1H-1,2,3-triazol-1-yl)ethyl]amino}methyl)biphenyl-3-sulfonamide] | 39.7 nM | 246 nM | >200 µM | 1.563 µM | 1.172 µM | 5.8 nM |  |
| NS(=O)(=O)c1c(C(F)(F)F)ccc(N2C[C@@H](O)[C@H](O)C2)c1-c1nnn[nH]1 [Example 756, 3-[(3R,4R)-3,4-dihydroxypyrrolidin-1-yl]-2-(1H-tetrazol-5-yl)-6-(trifluoromethyl) benzenesulfonamide] |  |  |  |  |  |  | IC50 [1, 13]: 89.1 nM; IC50 ([2]; VIM-1 IC50, fluorescence assay with CCF2-FA substrate): 339 nM; Klebsiella pneumoniae MITC95 [3, 15]: >200 µM; Serratia marcescens MITC95 [4, 16]: 12.5 µM; Escherichia coli MITC95 [5, 17]: 12.5 µM; IC50 [6, 13]: 78.1 nM |
| NS(=O)(=O)c1cccc(-c2ccc(CN3CCOCC3)cc2)c1-c1nnn[nH]1 [Example 341, 4′-(morpholin-4-ylmethyl)-2-(1H-tetrazol-5-yl)biphenyl-3-sulfonamide] | 22.1 nM | 786 nM | >200 µM | 1.172 µM | 0.7813 µM | 2.94 nM |  |
| NS(=O)(=O)c1cccc(-c2cnc3ncccn23)c1-c1nnn[nH]1 [Example 647, 3-imidazo[1,2-a]pyrimidin-3-yl-2-(1H-tetrazol-5-yl)benzenesulfonamide] |  |  |  |  |  |  | IC50 [1, 7]: 618 nM; IC50 [2, 8]: 83.9 nM; Klebsiella pneumoniae MITC95 [3, 9]: 6.25 µM; Serratia marcescens MITC95 [4, 10]: 18.75 µM; Escherichia coli MITC95 [5, 11]: 0.25 µM; IC50 [6, 12]: 14.1 nM |
| Cl.Cl.NC1CNCCC1(O)c1ccc(-c2cccc(S(N)(=O)=O)c2-c2nn[nH]n2)cc1 (racemic) [Example 282, 4′-(3-amino-4-hydroxypiperidin-4-yl)-2-(2H-tetrazol-5-yl)-[1,1′-biphenyl]-3-sulfonamide dihydrochloride (trans, racemate)] | 266 nM | 183 nM | 12.5 µM | 1.563 µM | 0.7813 µM | 21.5 nM |  |
| Cl.Cl.NC1(c2ccc(-c3cccc(S(N)(=O)=O)c3-c3nn[nH]n3)cc2)CCNCC1 [Example 283, 4′-(4-aminopiperidin-4-yl)-2-(2H-tetrazol-5-yl)-[1,1′-biphenyl]-3-sulfonamide dihydrochloride] | 500 nM | 308 nM | 12.5 µM | 2.344 µM | 0.5859 µM | 33 nM |  |
| NS(=O)(=O)c1cccc(-c2cnc(NC3CCCC3)nc2)c1-c1nnn[nH]1 [Example 124, 3-(2-(cyclopentylamino)pyrimidin-5-yl)-2-(1H-tetrazol-5-yl)benzenesulfonamide] |  |  |  |  |  |  | IC50 [1, 13]: 68.9 nM; IC50 [2, 14]: 259 nM; Klebsiella pneumoniae expressing VIM-1 (IHMA 599644) MITC95 [3, 24]: >200 µM; Serratia marcescens expressing IMP-1 (CL5741) MITC95 [4, 24]: 6.25 µM; Escherichia coli expressing NDM-1 (CLB 30016) MITC95 [5, 24]: 2.344 µM; IC50 [6, 13]: 4.34 nM |
| Cc1cc(CNCc2ccc(-c3cccc(S(N)(=O)=O)c3-c3nnn[nH]3)cc2)n[nH]1 [Example 354, 4′-({[(5-methyl-1H-pyrazol-3-yl)methyl]amino}methyl)-2-(1H-tetrazol-5-yl)biphenyl-3-sulfonamide] | 16.4 nM | 325 nM | 200 µM | 2.344 µM | 2.344 µM | 7.33 nM |  |
| NCCC1CCC(N[C@H]2CC[C@H](c3ccc(C(F)(F)F)c(S(N)(=O)=O)c3-c3nnn[nH]3)CC2)CC1 (stereo partly drawn) [Example 693, 3-(4-{[4-(2-aminoethyl)cyclohexyl]a-mino}cyclohexyl)-2-(1H-tetrazol-5-yl)-6-(trifluoromethyl)benzene sulfonamide] |  |  |  |  |  |  | IC50 [1, 7]: 97.8 nM; IC50 [2, 8]: 11.6 nM; Klebsiella pneumoniae MITC95 [3, 9]: 12.5 µM; Serratia marcescens MITC95 [4, 10]: 6.25 µM; Escherichia coli MITC95 [5, 11]: 3.125 µM; IC50 [6, 12]: 36.9 nM |
| CN(C)C1CCC(NCc2ccc(-c3cccc(S(N)(=O)=O)c3-c3nnn[nH]3)cc2)CC1 (stereo not drawn) [Example 355, 4′-({[4-(dimethylamino)cyclohexyl]amino}methyl)-2-(1H-tetrazol-5-yl)biphenyl-3-sulfonamide] | 467 nM | 869 nM | 150 µM | 4.688 µM | 1.563 µM | 14 nM |  |
| NS(=O)(=O)c1c(CC[C@H]2CC[C@H](N)CC2)ccc(-c2ccc(C3CCNCC3)cc2)c1-c1nn[nH]n1 [Example 461, 4-(2-((1r,4s)-4-aminocyclohexyl)ethyl)-4′-(piperidin-4-yl)-2-(2H-tetrazol-5-yl)-[1,1′-biphenyl]-3-sulfonamide] | 4.07 nM | 1.67 nM | 4.688 µM | 1.563 µM | 1.563 µM | 1.92 nM |  |
| CN(C)[C@@H]1CCN(Cc2ccc(-c3cccc(S(N)(=O)=O)c3-c3nnn[nH]3)cc2)C1 [Example 347, 4′-{[(3R)-3-(dimethylamino)pyrrolidin-1-yl]methyl}-2-(1H-tetrazol-5-yl)biphenyl-3-sulfonamide] | 185 nM | 844 nM | 200 µM | 3.125 µM | 2.344 µM | 12.2 nM |  |
| NS(=O)(=O)c1c(C(F)(F)F)ccc(C2CCC3(CCNCC3)CC2)c1-c1nnn[nH]1 [Example 833, 3-(3-azaspiro[5.5]undecan-9-yl)-2-(1H-tetrazol-5-yl)-6-(trifluoromethyl)benzenesulfonamide] |  |  |  |  |  |  | IC50 [1, 13]: 4.31 nM; IC50 [2, 14]: 3.33 nM; Klebsiella pneumoniae MITC95 [3, 15]: 12.5 µM; Serratia marcescens MITC95 [4, 16]: 3.125 µM; Escherichia coli MITC95 [5, 17]: 1.563 µM; IC50 [6, 13]: 0.74 nM |
